How the values were obtained:
[1] = Tolerability in SJSA-1 tumor-bearing nude rat (body weight, survival); assay type: in vivo
Experimental: Subcutaneous tumors were induced by concentrating 1.0×10^7 SJSA-1 cells in 50% Matrigel® and injecting in the right flank of Harlan nude rats.
[formula] Similarly, the body-weight (BW) of the animal was measured three times per week allowing calculation at any particular time-point relative to the day of initiation of treatment (day 0) of the percentage change in BW (Δ % BW).

bone marrow = assay: Bone marrow depletion and recovery after i.v. treatment (sternum sections); assay type: in vivo, rat; settings: i.v. 20 mg/kg
Experimental: (§1) All tissues were processed to FFPE according to routine procedures and following fixation, rat sternum was decalcified in Citrate/EDTA buffer for 5 days, with buffer exchange every 24 h. Sections were cut at 3 μm using a microtome. p21 and cleaved Caspase-3 immunohistochemistry was performed on a Ventana Discovery XT automated immunostainer using the OmniMap anti Mouse or Rabbit HRP secondary reagent and the ChromoMap DAB chromogen system (Ventana/Roche Diagnostics GmbH, Mannheim, Germany). Antigen retrieval was done by using Cell Conditioning Discovery CC1 (Ventana/Roche Diagnostics) at mild (95° 8 min+100° 20 min, for cleaved Caspase-3) or standard (95° 8 min+100° 36 min, for p21) conditions. The primary antibody was applied manually at the desired dilution in Dako antibody diluent, followed by incubation for 1 hour at room temperature. Corresponding negative controls were incubated with AbD only. Counterstaining of sections was done using hematoxylin (Ventana/Roche Diagnostics). After the automated staining run, slides were dehydrated in a graded series of ethanol, cleared in xylene and mounted with Pertex mounting medium.

[2] = test system: white blood cells (WBC), neutrophils and platelets; assay: White blood cells, neutrophils and platelets count (Sysmex); assay type: in vivo, nude rat
Description: The white blood cells (WBC), neutrophils and platelets were counted using a Sysmex (XT-2000i).
Blood was collected into commercially prepared EDTA coated microtubes (BD Microtainer, cat #365975).

Cleaved Caspase-3 = assay: Caspase-3 activation in SJSA-1 tumor (immunohistochemistry); assay type: in vivo, nude rat; settings: higher single dose; 24 h post-treatment
Experimental: as §1

BBC3 (puma) = assay: Pharmacodynamic qRT-PCR: Puma mRNA induction in SJSA-1 tumor; assay type: in vivo, Human
Description: At the times indicated, animals were anaesthetized by exposure to 2-3% v/v isofluorane in medical oxygen: • Either the animal was killed without recovering from anesthetic after blood sampling. Blood was collected into commercially prepared EDTA coated tubes (Milian, cat #TOM-14C) in order to extract plasma. The tissues were excised, weighed and rapidly frozen in liquid nitrogen. • Or a tumor biopsy was collected by using a biopsy gun and flushing the needle with RLT buffer in Barney rubble tubes (Covaris, cat #520048). In addition, 20 μl of blood may have been collected from the tail vein and diluted in 20 μl of water. After recovery of anesthesia, animals were transferred in their respective cages.
Frozen tissues were cryogenic dry pulverized and biopsies were sonicated using the CryoPrep™ system (model CP-02) from Covaris. More specifically, frozen tissues were transferred to disposable tubes called TissueTubes™, placed in the CryoPrep™ system and then pulverized using the appropriate impact setting. The resulting powder was collected with a spatula and weighed for further processing (mRNA purification or quantification of compound in tissues). The biopsies were flushed in a Barney rubble glass tubes with 350 μl of RLT buffer and placed in the Covaris for sonication (1 min per biopsy). The resulting lysate was transferred into a QIAshredder (79654, Qiagen) column for RNA extraction.
Total RNA was purified from cell pellets using the QIAshredder (79654, Qiagen) and RNeasy Mini Kit (74106, Qiagen) according to the manufacturer's instructions, with the exception that no DNA digestion was performed. Total RNA was eluted with 50 μL of RNase-free water. Total RNA was quantitated using the spectrophotometer ND-1000 Nanodrop®. The qRT-PCR (Quantitative Reverse Transcriptase Polymerase Chain Reaction) was set up in triplicate per sample using the One-Step RT qPCR Master Mix Plus (RT-QPRT-032X, Eurogentec), with either control primers and primers for the target, namely TaqMan Gene Expression assays (20× probe dye FAM™ (or VIC)-TAMRA (or MGB); Applied Biosystems) listed in Table 1.

Rat Bbc3 (PUMA) = assay: mRNA in situ hybridization of host tissues; assay type: in vivo; settings: i.v. 20 mg/kg
Experimental: In situ hybridization was performed using the QuantiGene ViewRNA FFPE Assay kit (Affymetrix/Panomics) following the manufacturer's protocol. Gene-specific probe sets for rat Ubc (Ubiquitin C) and Bbc3 (PUMA) mRNAs were custom-designed and synthesized by Affymetrix. Bbc3 probes were used in type 1/Fast Red and Ubc probes were used in type 6/Fast Blue. Slides were processed strictly following the QuantiGene protocol. […] Briefly, five micrometer sections were cut, fixed in 10% formaldehyde, deparaffinized and rehydrated. In order to increase accessibility to mRNAs, slides were then boiled in pre-treatment solution (Affymetrix) and digested with protease QF (Affymetrix) at optimal conditions. Sections were then hybridized for 3 h at 40° C. with custom-designed QuantiGene ViewRNA probes against Bbc3 and the control gene Ubc. A no-probe sample was utilized as a negative control per the Affymetrix manual's recommendations. […] LP-AP type 6 probe detection of signal was done with Fast Blue substrate (blue dots, Cy5 fluorescence) for 30 mn at RT in the dark, followed by LP-AP type 1 probe detection of signal with Fast Red Substrate (red dots, Cy3 fluorescence) for 30 mn at 40° C. […]

[3] = p.o. q3w 27 mg/kg, before the second treatment

COc1ncc(-c2nc3c(n2C(C)C)[C@H](c2ccc(Cl)cc2)N(c2cc(Cl)cn(C)c2=O)C3=O)c(OC)n1 [Compound A, (S)-5-(5-Chloro-1-methyl-2-oxo-1,2-dihydro-pyridin-3-yl)-6-(4-chloro-phenyl)-2-(2,4-dimethoxy-pyrimidin-5-yl)-1-isopropyl-5,6-dihydro-1H-pyrrolo[3,4-d]imidazol-4-one]
ABW (%) ([1]; i.v. q3w 13.7 mg/kg, week 1 post treatment): 2.7 ± 0.9%
ABW (%) ([1]; i.v. q3w 13.7 mg/kg, week 2 post treatment): 7.5 ± 1.0%
ABW (%) ([1]; i.v. q3w 18.2 mg/kg, week 1 post treatment): 2.5 ± 2.6%
ABW (%) ([1]; i.v. q3w 18.2 mg/kg, week 2 post treatment): 9.1 ± 1.9%
ABW (%) ([1]; i.v. q3w 18.2 mg/kg, week 3 post treatment): 11.9 ± 2.7%
ABW (%) ([1]; i.v. q3w 18.2 mg/kg, week 5 post treatment): 10.6 ± 2.3%
ABW (%) ([1]; i.v. q3w 18.2 mg/kg, week 6 post treatment): 5.9 ± 7.9%
sacrifice because of excessive body weight (BW) loss ([1]; single i.v. 20 mg/kg, day 9 post treatment): One rat had to be sacrificed
bone marrow state (bone marrow; 14 days post treatment): severe bone marrow depletion
bone marrow recovery (bone marrow; day 22): partial recovery
recovery of WBCs, neutrophils and platelets ([2]; i.v. q3w 18.2 mg/kg, day 21 post second treatment): only partially recovered
WBCs, neutrophils and platelets ([2]; i.v. q3w 20 mg/kg, after the first treatment): dramatic decrease
WBCs, neutrophils and platelets ([2]; i.v. q3w 20 mg/kg, after the second treatment): extremely low level close to 0
recovery of WBCs, neutrophils and platelets ([2]; i.v. q3w 20 mg/kg, day 21 post treatment, most rats): only partially recovered
WBCs, neutrophils and platelets ([2]; i.v. q3w 13.7 and 18.2 mg/kg, after the first treatment): strong decrease
recovery of WBCs, neutrophils and platelets ([2]; i.v. q3w 13.7 and 18.2 mg/kg, day 21 post treatment): fully recovered
recovery of WBCs and platelets ([2]; p.o. q3w 20 mg/kg, before the second treatment): fully recovered
recovery of WBCs [2, 3]: only partially
recovery of platelets [2, 3]: fully recovered
WBCs, neutrophils and platelets ([2]; p.o. q3w 20 and 27 mg/kg): dose-dependent decrease
caspase-3 activation in tumor (Cleaved Caspase-3): strong caspase-3 activation
Puma mRNA expression in tumor (BBC3 (puma); after first p.o. treatment, 20 and 27 mg/kg): dose-dependently increased
Puma mRNA expression increase in tumor (BBC3 (puma); after first single i.v. treatment 20 mg/kg): more than 50 fold
Puma mRNA expression induction (BBC3 (puma); below the high dose): 5-6 fold
Puma mRNA induction Emax (BBC3 (puma); higher single dose, intravenously or per os): ≥ 70 fold induction
Puma mRNA expression max (BBC3 (puma); single i.v. 20 mg/kg, 24 h post treatment, tumor): 180 fold
Puma mRNA induction Emax (BBC3 (puma); single oral 27 mg/kg, 48 h post treatment, tumor): 162 fold
time of maximum increase in Puma (Bbc3) mRNA (Rat Bbc3 (PUMA); jejunum section, post last treatment): 3 h
time of return of Puma mRNA to baseline (Rat Bbc3 (PUMA); post treatment): 7 days

From patent publication US11419870B2, “Intermittent dosing of MDM2 inhibitor” (Novartis AG, priority 2014, dated 2022)
